Experimental data reported in ChEMBL document CHEMBL1139972, “Dihydro-[1H]-quinolin-2-ones as retinoid X receptor (RXR) agonists for potential treatment of dyslipidemia” (Bioorg Med Chem Lett, 2007).
Activity calls are given as the source filed them. No cut-off for these calls is given here.

How the values were obtained:
Mus musculus = species on record: Mus musculus; assay: Decrease in blood glucose level in db/db mouse after 11 days; assay type: functional, organism-based
[1] = Cmax in rat at 3 mg/kg, po; assay type: ADME, organism-based; set-up: dose 3 mg/kg, route oral; conditions: in vivo
Rattus norvegicus [2] = assay: Effect on serum triglyceride level in high cholesterol diet fed Sprague-Dawley rat at 30 mg/kg, po after 8 days relative to control; assay type: functional
Rattus norvegicus [3] = assay: Effect on serum triglyceride level in high cholesterol diet fed Sprague-Dawley rat at 10 mg/kg, po after 8 days relative to control; assay type: functional
Rattus norvegicus [4] = assay: Effect on serum LDL-C level in high cholesterol diet fed Sprague-Dawley rat at 10 mg/kg, po after 8 days relative to control; assay type: functional
[5] = Cmax in high cholesterol diet fed Sprague-Dawley rat at 30 mg/kg, po after 8 days; assay type: ADME, organism-based; set-up: dose 30 mg/kg, route oral; conditions: in vivo
[6] = Half life in rat at 3 mg/kg, po; assay type: ADME, organism-based; set-up: dose 3 mg/kg, route oral; conditions: in vivo
Rattus norvegicus [7] = assay: Effect on serum LDL-C level in high cholesterol diet fed Sprague-Dawley rat at 0.3 mg/kg, po after 8 days relative to control; assay type: functional
Rattus norvegicus [8] = assay: Effect on serum LDL-C level in high cholesterol diet fed Sprague-Dawley rat at 3 mg/kg, po after 8 days relative to control; assay type: functional
Rattus norvegicus [9] = assay: Effect on serum HDL-C level in high cholesterol diet fed Sprague-Dawley rat at 3 mg/kg, po after 8 days relative to control; assay type: functional
Rattus norvegicus [10] = assay: Effect on serum triglyceride level in high cholesterol diet fed Sprague-Dawley rat at 3 mg/kg, po after 8 days relative to control; assay type: functional
Rattus norvegicus [11] = assay: Effect on serum HDL-C level in high cholesterol diet fed Sprague-Dawley rat at 10 mg/kg, po after 8 days relative to control; assay type: functional
[12] = Activity at RXR-LXR heterodimer assessed as induction of ABCA1 mRNA; set-up: species or system Homo sapiens
[13] = AUC in rat at 3 mg/kg, po; assay type: ADME, organism-based; set-up: dose 3 mg/kg, route oral; conditions: plasma
[14] = Clearance in rat at 3 mg/kg, po; assay type: ADME, organism-based; set-up: dose 3 mg/kg, route oral; conditions: in vivo
Rattus norvegicus [15] = assay: Effect on serum HDL-C level in high cholesterol diet fed Sprague-Dawley rat at 1 mg/kg, po after 8 days relative to control; assay type: functional
Rattus norvegicus [16] = assay: Effect on serum cholesterol level in high cholesterol diet fed Sprague-Dawley rat at 10 mg/kg, po after 8 days relative to control; assay type: functional
Rattus norvegicus [17] = assay: Effect on serum cholesterol level in high cholesterol diet fed Sprague-Dawley rat at 1 mg/kg, po after 8 days relative to control; assay type: functional
[18] = target: T1, Retinoic acid receptor RXR-alpha (Homo sapiens) (UniProt P19793); assay: Activity at RXRalpha by GAL4DNA cotransfection assay relative to 5-((3-(1-ethyl-4,4,6-trimethyl-2-oxo-1,2,3,4-tetrahydroquinolin-7-yl)-4-(trifluoromethoxy)phenyl)methylene)thiazolidine-2,4-dione; set-up: concentration or dose not given beside the values
T1 sequence (whole entry): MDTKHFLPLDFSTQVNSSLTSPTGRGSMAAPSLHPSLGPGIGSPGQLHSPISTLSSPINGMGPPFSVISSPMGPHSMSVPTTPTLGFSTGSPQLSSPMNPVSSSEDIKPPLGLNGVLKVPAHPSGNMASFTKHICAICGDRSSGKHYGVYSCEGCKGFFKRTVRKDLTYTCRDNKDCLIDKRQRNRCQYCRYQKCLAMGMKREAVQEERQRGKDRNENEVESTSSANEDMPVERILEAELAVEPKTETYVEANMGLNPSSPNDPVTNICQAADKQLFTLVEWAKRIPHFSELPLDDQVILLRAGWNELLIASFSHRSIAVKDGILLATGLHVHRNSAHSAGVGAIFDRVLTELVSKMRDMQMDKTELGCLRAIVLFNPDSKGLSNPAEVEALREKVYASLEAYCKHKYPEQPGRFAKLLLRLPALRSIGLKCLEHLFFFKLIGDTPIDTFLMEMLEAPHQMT

[19] = Cmax in high cholesterol diet fed Sprague-Dawley rat at 0.3 mg/kg, po after 8 days; assay type: ADME, organism-based; set-up: dose 0.3 mg/kg, route oral; conditions: in vivo
[20] = target: T2, Retinoic acid receptor RXR-alpha (Homo sapiens, UniProt P19793); assay: Activity at RXRalpha by GAL4DNA cotransfection assay
T2 sequence (P19793 whole entry): T1 sequence (whole entry)

Homo sapiens = species on record: Homo sapiens; assay: Activation of RXR-LXR heterodimer assessed as induction of ABCA1 mRNA relative to 5-((3-(1-ethyl-4,4,6-trimethyl-2-oxo-1,2,3,4-tetrahydroquinolin-7-yl)-4-(trifluoromethoxy)phenyl)methylene)thiazolidine-2,4-dione; set-up: concentration or dose not given beside the values
Rattus norvegicus [21] = assay: Effect on serum cholesterol level in high cholesterol diet fed Sprague-Dawley rat at 3 mg/kg, po after 8 days relative to control; assay type: functional
Rattus norvegicus [22] = assay: Effect on serum cholesterol level in high cholesterol diet fed Sprague-Dawley rat at 0.3 mg/kg, po after 8 days relative to control; assay type: functional
Rattus norvegicus [23] = assay: Effect on serum triglyceride level in high cholesterol diet fed Sprague-Dawley rat at 1 mg/kg, po after 8 days relative to control; assay type: functional
Rattus norvegicus [24] = assay: Effect on serum HDL-C level in high cholesterol diet fed Sprague-Dawley rat at 0.3 mg/kg, po after 8 days relative to control; assay type: functional
Rattus norvegicus [25] = assay: Effect on serum cholesterol level in high cholesterol diet fed Sprague-Dawley rat at 30 mg/kg, po after 8 days relative to control; assay type: functional
Rattus norvegicus [26] = assay: Effect on serum HDL-C level in high cholesterol diet fed Sprague-Dawley rat at 30 mg/kg, po after 8 days relative to control; assay type: functional
Rattus norvegicus [27] = assay: Effect on serum LDL-C level in high cholesterol diet fed Sprague-Dawley rat at 30 mg/kg, po after 8 days relative to control; assay type: functional
[28] = Oral bioavailability in rat at 3 mg/kg; assay type: ADME, organism-based; conditions: in vivo
[29] = Activity at RXR-PPARgamma in human preadipocytes assessed as induction of adipocytes fatty acid binding protein; assay type: cell-based
Rattus norvegicus [30] = assay: Effect on serum LDL-C level in high cholesterol diet fed Sprague-Dawley rat at 1 mg/kg, po after 8 days relative to control; assay type: functional
Rattus norvegicus [31] = assay: Effect on serum triglyceride level in high cholesterol diet fed Sprague-Dawley rat at 0.3 mg/kg, po after 8 days relative to control; assay type: functional

Q: Which results are given for `CCN1C(=O)CC(C)(C)c2cc(C)c(-c3cc(CCC(=O)O)ccc3OC(F)(F)F)cc21`?
A: Activity (Mus musculus): inactive; Cmax [1]: 678 ng/mL; Activity (Rattus norvegicus [2]): 322 mg/dL; Activity (Rattus norvegicus [3]): 270 mg/dL; Activity (Rattus norvegicus [4]): 35 mg/dL; Cmax [5]: 7510 ng/mL; half-life [6]: 1440 min; Activity (Rattus norvegicus [7]): 53 mg/dL; Activity (Rattus norvegicus [8]): 46 mg/dL; Activity (Rattus norvegicus [9]): 37 mg/dL; Activity (Rattus norvegicus [10]): 253 mg/dL; Activity (Rattus norvegicus [11]): 39 mg/dL; EC50 [12]: 47 nM; AUC [13]: 6130 ng·h/mL; CL/F [14]: 4.6 mL/min/kg; Activity (Rattus norvegicus [15]): 30 mg/dL; Activity (Rattus norvegicus [16]): 228 mg/dL; Activity (Rattus norvegicus [17]): 313 mg/dL; Activity [18]: 79%; Cmax [19]: 58.5 ng/mL; EC50 [20]: 7.2 nM; Activity (Homo sapiens): 70%; Activity (Rattus norvegicus [21]): 302 mg/dL; Activity (Rattus norvegicus [22]): 343 mg/dL; Activity (Rattus norvegicus [23]): 279 mg/dL; Activity (Rattus norvegicus [24]): 29 mg/dL; Activity (Rattus norvegicus [25]): 252 mg/dL; Activity (Rattus norvegicus [26]): 42 mg/dL; Activity (Rattus norvegicus [27]): 38 mg/dL; bioavailability [28]: 71%; EC50 [29]: 1200 nM; Activity (Rattus norvegicus [30]): 46 mg/dL; Activity (Rattus norvegicus [31]): 320 mg/dL
